Experiment [1] has as its target T1, hSTING REF allele (Homo sapiens, UniProt Q86WV6).
T1 construct: DNA encoding amino acids 140-379 (amino acid numbering corresponding to Swiss Prot Q86WV6); 6xHIS (N, cleaved yes); SUMO (N, cleaved yes); made in house; host or cells: Rosetta2 (DE3) E. coli
Briefly: Differential scanning fluorometry (DSF) binding to purified STING AA140-379, REF allele. As to conditions: for hSTING Tm Shift REF: DSF, ligand 1 mM, 1 mg/ml STING AA140-379. The procedure:
(§1) Cells were grown in lysogeny broth at 37° C. until a […] absorbance of 0.6 was reached. […] Cell pellets were re-suspended on ice in a buffer containing 50 mM Tris hydrochloride (Tris-HCl) pH 7.5, 500 mM sodium chloride (NaCl), 20 mM imidazole, 10% glycerol, 1 mM tris(2-carboxyethyl)phosphine hydrochloride (TCEP) and protease inhibitor tablet (Pierce) (Buffer A). Cells were lysed using an S-450D sonifier (Emmerson industrial) on ice. […] Protein was aliquoted, flash frozen in liquid nitrogen and stored at −80° C. until use.
(§2) The protein is heated in the presence of a dye that binds to and fluoresces in hydrophobic environments. The protein is thermally denatured by heating resulting in increased dye binding to the unfolded protein and fluorescence. The temperature midpoint (Tm) of a proteins denaturation is established by calculating the half maximal value of the denaturation curve. The temperature midpoint of the protein in the presence of a ligand is directly related to the affinity of the ligand for the protein and therefore its ability to stabilize the protein at higher temperatures.
(§3) Each of wild type hSTING, HAQ allele hSTING and REF allele hSTING were used with each of the reference compounds and compounds of the invention as listed in Table 4. Samples were placed in hard shell PCR plate (Bio-Rad). The fluorescence as a function of temperature was recorded in a CFX 96 real time PCR machine (Bio-Rad) reading on the HEX channel, excitation 450-490, emission 560-580 nm. The temperature gradient was from 15-80° C. ramping 0.5° C. per 15 seconds and recording every 0.5° C. After subtraction of the background signal from a sample lacking protein and ligand. The midpoint temperature (Tm) was calculated by fitting the curves of the fluorescence as a function of temperature to a Boltzmann sigmoidal function (Graph Pad Prism).

The target in experiment [2] is T2, hSTING WT (Homo sapiens, UniProt Q86WV6, H232R).
T2 construct: DNA encoding amino acids 140-379 (amino acid numbering corresponding to Swiss Prot Q86WV6); 6xHIS (N, cleaved yes); SUMO (N, cleaved yes); made in house; host or cells: Rosetta2 (DE3) E. coli
Briefly: Differential scanning fluorometry (DSF) binding to purified STING AA140-379, wild type. As to conditions: for hSTING Tm Shift WT: DSF, ligand 1 mM, 1 mg/ml STING AA140-379. The procedure:
as §1, §2, §3
Background: Differential scanning fluorimetry follows unfolding on heating by fluorescence.

Experiment [3] has as its target T3, hSTING HAQ allele (Homo sapiens, UniProt Q86WV6, G230A/H232R/R293Q).
T3 construct: DNA encoding amino acids 140-379 (amino acid numbering corresponding to Swiss Prot Q86WV6); 6xHIS (N, cleaved yes); SUMO (N, cleaved yes); made in house; host or cells: Rosetta2 (DE3) E. coli
Briefly: Differential scanning fluorometry (DSF) binding to purified STING AA140-379, HAQ allele. As to conditions: ligand 1 mM, 1 mg/ml STING AA140-379. The procedure:
as §1, §2, §3

Experiment [4] concerns the target T4, hSTING HAQ allele in THP1-Dual cells (Homo sapiens, UniProt Q86WV6, G230A/H232R/R293Q/R71H).
T4 construct: a human monocyte cell line containing the hSTING HAQ allele; host or cells: THP1-Dual cells
Nature of the experiment: THP1-Dual IRF-3 inducible secreted luciferase reporter assay (type I interferon activation), without digitonin. It counts as cell-based. On the procedure:
After 30 minutes, cells were washed and fresh RPMI media containing 10% FBS was added, and cells were incubated at 37° C. with 5% CO2 Cell culture supernatants from each sample were collected after overnight incubation, and 10 μL of the cell culture supernatants was added to 50 μL QUANTI-Luc reagent (Invivogen). Type I interferon activation was determined by measuring secreted luciferase levels on a SpectraMax M3 spectrophotometer (Molecular Devices).
For orientation: A reporter such as luciferase makes a cellular process visible.

Consider 14 molecules from patent publication US11098077B2, “Locked nucleic acid cyclic dinucleotide compounds and uses thereof” (CHINOOK THERAPEUTICS, INC., priority 2016, dated 2021).

T2 sequence (Q86WV6 140-379 H232R limits assumed): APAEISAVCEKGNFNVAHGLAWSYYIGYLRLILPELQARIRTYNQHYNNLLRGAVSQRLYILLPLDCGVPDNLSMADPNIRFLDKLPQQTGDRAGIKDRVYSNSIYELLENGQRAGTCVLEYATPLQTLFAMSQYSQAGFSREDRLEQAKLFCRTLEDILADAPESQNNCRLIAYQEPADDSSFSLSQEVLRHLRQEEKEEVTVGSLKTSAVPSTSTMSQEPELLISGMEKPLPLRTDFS
T1 sequence (Q86WV6 140-379): as the sequence (Q86WV6 140-379 H232R limits assumed) above, with R93H counted along it
T4 sequence (Q86WV6 whole entry R71H/G230A/H232R/R293Q): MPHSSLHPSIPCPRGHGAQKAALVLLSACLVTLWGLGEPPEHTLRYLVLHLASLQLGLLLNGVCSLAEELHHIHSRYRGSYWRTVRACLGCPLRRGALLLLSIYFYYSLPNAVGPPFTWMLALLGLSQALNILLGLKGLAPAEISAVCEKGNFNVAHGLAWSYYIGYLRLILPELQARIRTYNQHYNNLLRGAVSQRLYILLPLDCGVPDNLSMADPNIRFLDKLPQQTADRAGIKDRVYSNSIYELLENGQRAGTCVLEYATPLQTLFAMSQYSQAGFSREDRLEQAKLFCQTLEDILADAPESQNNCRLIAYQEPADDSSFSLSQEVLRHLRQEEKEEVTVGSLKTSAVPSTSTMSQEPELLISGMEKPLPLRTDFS
T3 sequence (Q86WV6 140-379 G230A/H232R/R293Q limits assumed): as the sequence (Q86WV6 140-379 H232R limits assumed) above, with G91A, R154Q counted along it

The term EC50 denotes the concentration at which the effect is half-maximal. A lower EC50 goes with greater potency. With `O=C(Nc1ncnc2c1ncn2[C@@H]1O[C@@]23CO[C@@H]1[C@@H]2O[P@](=O)(S)OC[C@@]12CO[C@@H]([C@H](n4cnc5c(NC(=O)c6ccccc6)ncnc54)O1)[C@@H]2O[P@](=O)(S)OC3)c1ccccc1` [Compound 4a], in experiment [1], the “hSTING Tm Shift REF” value worked out at 4.4 °C. Further, in experiment [2], the “hSTING Tm Shift WT” value is 4.3 °C. In addition, the “hSTING Tm Shift HAQ” value in experiment [3] worked out at 5.6 °C. The same molecule came in with an EC50 in experiment [4] of 341 µM.

Consider `Nc1ncnc2c1ncn2[C@@H]1O[C@@]23CO[C@@H]1[C@@H]2O[P@@](=O)(S)OC[C@@]12CO[C@@H]([C@H](n4cnc5c(N)ncnc54)O1)[C@@H]2O[P@](=O)(S)OC3` [Compound 5b], for which the “hSTING Tm Shift REF” value in experiment [1] was determined as 8.7 °C. The “Tm shift compared with 2′3′-RR-(A)(A) and 2′3′-(G)(A)” value in experiment [1] (for the REF allele) was “greater Tm shift than both 2′3′-RR-(A)(A) and 2′3′-(G)(A)”. For the same molecule, the “hSTING Tm Shift WT” value in experiment [2] turned out to be 11.3 °C. Moreover, the “Tm shift compared with reference compound 2′3′-RR-(A)(A)” value in experiment [2] (for all three alleles (WT, HAQ, REF)) is given as “comparable to or greater than that of the reference compound 2′3′-RR-(A)(A)”. The “hSTING Tm Shift HAQ” value in experiment [3] worked out at 18.3 °C. The same molecule showed an EC50 in experiment [4] of 19.3 µM.

For `Nc1ncnc2c1ncn2[C@@H]1O[C@@H]2CO[P@@](=O)(S)O[C@H]3[C@H]4OC[C@]3(CO[P@@](=O)(S)O[C@@H]1[C@@H]2O)O[C@H]4n1cnc2c(N)ncnc21` [Compound 10a, dithio-(Rp,Rp)-cyclic-[A(2′,5′)p-2′O,4′C-LNA-A(3′,5′)p]], in experiment [1], the “hSTING Tm Shift REF” value was determined as 7.5 °C. Also, in experiment [2], the “hSTING Tm Shift WT” value was determined as 10.4 °C. Moreover, the “hSTING Tm Shift HAQ” value in experiment [3] was determined as 16.1 °C. For the same molecule, the response in experiment [4] was half-maximal at 24.3 µM (EC50).

Turning to `Nc1ncnc2c1ncn2[C@@H]1O[C@@H]2CO[P@](=O)(S)O[C@H]3[C@H]4OC[C@]3(CO[P@@](=O)(S)O[C@@H]1[C@@H]2O)O[C@H]4n1cnc2c(N)ncnc21` [Compound 10b, dithio-(Rp,Sp)-cyclic-[A(2′,5′)p-2′O,4′C-LNA-A(3′,5′)p]], the “hSTING Tm Shift REF” value in experiment [1] was 7.4 °C. In experiment [2], the “hSTING Tm Shift WT” value turned out to be 8.7 °C. In experiment [3], the “hSTING Tm Shift HAQ” value was 13.9 °C. Also, the EC50 in experiment [4] is 110 µM.

Turning to `Nc1ncnc2c1ncn2[C@@H]1O[C@@H]2CO[P@](=O)(S)O[C@H]3[C@H]4OC[C@]3(CO[P@](=O)(S)O[C@@H]1[C@@H]2O)O[C@H]4n1cnc2c(N)ncnc21` [Compound 10d, dithio-(Sp,Sp)-cyclic-[A(2′,5′)p-2′O,4′-C-LNA-A(3′,5′)p]], in experiment [1], the “hSTING Tm Shift REF” value came to 3.2 °C. In addition, the “hSTING Tm Shift WT” value in experiment [2] stood at 4.1 °C. Besides, the “hSTING Tm Shift HAQ” value in experiment [3] turned out to be 5.0 °C. In experiment [4], this molecule displayed a concentration giving a half-maximal response (EC50) of over 150 µM.

As to `CC(C)(C)[Si](C)(C)O[C@H]1[C@H]2O[P@](=O)(S)OC[C@@]34CO[C@@H]([C@H](n5cnc6c(N)ncnc65)O3)[C@@H]4O[P@](=O)(S)OC[C@H]1O[C@H]2n1cnc2c(N)ncnc21` [Compound 11a, dithio-(Rp,Rp)-cyclic-[3′-OTBS-A(2′,5′)p-2′O,4′C-LNA-A(3′,5′)p]], the “hSTING Tm Shift REF” value in experiment [1] came to 5.4 °C. Besides, the “hSTING Tm Shift WT” value in experiment [2] was 7.0 °C. In addition, the “hSTING Tm Shift HAQ” value in experiment [3] is 11.6 °C.

Turning to `CC(C)(C)[Si](C)(C)O[C@H]1[C@H]2O[P@](=O)(S)OC[C@@]34CO[C@@H]([C@H](n5cnc6c(N)ncnc65)O3)[C@@H]4O[P@@](=O)(S)OC[C@H]1O[C@H]2n1cnc2c(N)ncnc21` [Compound 11b, dithio-(Rp,Sp)-cyclic-[3′-OTBS-A(2′,5′)p-2′O,4′C-LNA-A(3′,5′)p]], the “hSTING Tm Shift REF” value in experiment [1] is −1.5 °C. Also, in experiment [2], the “hSTING Tm Shift WT” value was −1.8 °C. Besides, the “hSTING Tm Shift HAQ” value in experiment [3] turned out to be 3.3 °C.

For the molecule `O=C(Nc1ncnc2c1ncn2[C@@H]1O[C@@H]2CO[P@@](=O)(S)O[C@H]3[C@H]4OC[C@]3(CO[P@@](=O)(S)O[C@@H]1[C@@H]2O)O[C@H]4n1cnc2c(NC(=O)c3ccccc3)ncnc21)c1ccccc1` [Compound 11d, dithio-(Rp,Rp)-cyclic-[3′-BzA(2′,5′)p-2′O,4′C-LNA-BzA(3′,5′)p]], the “hSTING Tm Shift REF” value in experiment [1] was determined as 2.4 °C. The “hSTING Tm Shift WT” value in experiment [2] is 2.5 °C. The “hSTING Tm Shift HAQ” value in experiment [3] stood at 3.7 °C.

In the case of `O=C(Nc1ncnc2c1ncn2[C@@H]1O[C@@H]2CO[P@](=O)(S)O[C@H]3[C@H]4OC[C@]3(CO[P@@](=O)(S)O[C@@H]1[C@@H]2O)O[C@H]4n1cnc2c(NC(=O)c3ccccc3)ncnc21)c1ccccc1` [Compound 11e, dithio-(Rp,Sp)-cyclic-[3′-BzA(2′,5′)p-2′O,4′C-LNA-BzA(3′,5′)p]], in experiment [1], the “hSTING Tm Shift REF” value was found to be 1.2 °C. Moreover, the “hSTING Tm Shift WT” value in experiment [2] was found to be 1.1 °C. Moreover, the “hSTING Tm Shift HAQ” value in experiment [3] was found to be 1.5 °C.

In the case of `O=C(Nc1ncnc2c1ncn2[C@@H]1O[C@@H]2CO[P@@](=O)(S)O[C@H]3[C@H]4OC[C@]3(CO[P@](=O)(S)O[C@@H]1[C@@H]2O)O[C@H]4n1cnc2c(NC(=O)c3ccccc3)ncnc21)c1ccccc1` [Compound 11f, dithio-(Sp,Rp)-cyclic-[3′-BzA(2′,5′)p-2′O,4′C-LNA-BzA(3′,5′)p]], the “hSTING Tm Shift REF” value in experiment [1] is 6.5 °C. In experiment [2], the “hSTING Tm Shift WT” value was found to be 6.6 °C. The “hSTING Tm Shift HAQ” value in experiment [3] amounted to 7.5 °C.

For the molecule `Nc1ncnc2c1ncn2[C@@H]1O[C@@]23CO[C@@H]1[C@@H]2O[P@](=O)(S)OC[C@@H]1C[C@@H](O[P@](=O)(S)OC3)[C@H](n2cnc3c(N)ncnc32)O1` [Compound 21a, dithio-(Rp,Rp)-cyclic-[3′H-A(2′,5′)p-2′O,4′C-LNA-A(3′,5′)p]], the “hSTING Tm Shift REF” value in experiment [1] was 6.2 °C. Also, the “hSTING Tm Shift WT” value in experiment [2] amounted to 9.5 °C. Besides, in experiment [3], the “hSTING Tm Shift HAQ” value is 16.2 °C. Moreover, the concentration giving a half-maximal response (EC50) in experiment [4] is 26.9 µM.

For the molecule `Nc1ncnc2c1ncn2[C@@H]1O[C@@]23CO[C@@H]1[C@@H]2O[P@@](=O)(S)OC[C@@H]1C[C@@H](O[P@](=O)(S)OC3)[C@H](n2cnc3c(N)ncnc32)O1` [Compound 21b, dithio-(Rp,Sp)-cyclic-[3′H-A(2′,5′)p-2′O,4′C-LNA-A(3′,5′)p]], the “hSTING Tm Shift REF” value in experiment [1] worked out at 4.2 °C. Moreover, the “hSTING Tm Shift WT” value in experiment [2] turned out to be 5.0 °C. Also, the “hSTING Tm Shift HAQ” value in experiment [3] came out at 10.0 °C. The midpoint of the response in experiment [4], the EC50, lay at 77.3 µM.

Regarding `O=C(Nc1ncnc2c1ncn2[C@@H]1O[C@@]23CO[C@@H]1[C@@H]2O[P@](=O)(S)OC[C@@H]1C[C@@H](O[P@](=O)(S)OC3)[C@H](n2cnc3c(NC(=O)c4ccccc4)ncnc32)O1)c1ccccc1` [Compound 22a, dithio-(Rp,Rp)-cyclic-[3′H-BzA(2′,5′)p-2′O,4′C-LNA-BzA(3′,5′)p]], the “hSTING Tm Shift REF” value in experiment [1] came out at 0.6 °C. In experiment [2], the “hSTING Tm Shift WT” value is 0.6 °C. In experiment [3], the “hSTING Tm Shift HAQ” value is 2.2 °C.

In the case of `O=C(Nc1ncnc2c1ncn2[C@@H]1O[C@@]23CO[C@@H]1[C@@H]2O[P@@](=O)(S)OC[C@@H]1C[C@@H](O[P@](=O)(S)OC3)[C@H](n2cnc3c(NC(=O)c4ccccc4)ncnc32)O1)c1ccccc1` [Compound 22b, dithio-(Rp,Sp)-cyclic-[3′H-BzA(2′,5′)p-2′O,4′C-LNA-BzA(3′,5′)p]], the “hSTING Tm Shift REF” value in experiment [1] was found to be 4.6 °C. The “hSTING Tm Shift WT” value in experiment [2] turned out to be 4.6 °C. Besides, the “hSTING Tm Shift HAQ” value in experiment [3] was 5.9 °C.
